Results: the supplement of paper PMC5844555

What was measured:
Experiment in all cases: 3' UTR reporter interaction score (median-centred robust z-score of log2 firefly/Renilla activity); higher = less repression of the 3' UTR reporter
Conditions in all cases: HEK293T; 48 h
BRCA2 = system: BRCA2
How it was run: (§1)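 Firefly and Renilla luciferase activities were read 48 h post-transfection in HEK293T cells (10,000/well, 96-well plates). The cells had received 100 ng firefly luc2P reporter bearing the gene's 3' UTR, 20 ng Renilla pRL-TK control and 2.5 pmol miRNA mimic via DharmaFECT Duo. The interaction score, where more negative means interaction, is a per-plate robust z-score (median, median absolute deviation) of the log firefly/Renilla ratio, median-centred per miRNA and averaged over at least two independent screens.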

EZH2 = system: EZH2
How it was run: as §1

FBXW7 = system: FBXW7
How it was run: as §1

HRAS = system: HRAS
How it was run: as §1

MYB = system: MYB
How it was run: as §1

MYCN = system: MYCN
How it was run: as §1

MYC = system: MYC
How it was run: as §1

MYT1L = system: MYT1L
How it was run: as §1

NOTCH1 = system: NOTCH1
How it was run: as §1

PHF6 = system: PHF6
How it was run: as §1

PHOX2B = system: PHOX2B
How it was run: as §1

RB1 = system: RB1
How it was run: as §1

TP53 = system: TP53
How it was run: as §1

ZEB2 = system: ZEB2
How it was run: as §1

| Sequence | 3' UTR reporter interaction score (BRCA2) | 3' UTR reporter interaction score (EZH2) | 3' UTR reporter interaction score (FBXW7) | 3' UTR reporter interaction score (HRAS) | 3' UTR reporter interaction score (MYB) | 3' UTR reporter interaction score (MYCN) | 3' UTR reporter interaction score (MYC) | 3' UTR reporter interaction score (MYT1L) | 3' UTR reporter interaction score (NOTCH1) | 3' UTR reporter interaction score (PHF6) | 3' UTR reporter interaction score (PHOX2B) | 3' UTR reporter interaction score (RB1) | 3' UTR reporter interaction score (TP53) | 3' UTR reporter interaction score (ZEB2) |
| --- | --- | --- | --- | --- | --- | --- | --- | --- | --- | --- | --- | --- | --- | --- |
| UUCACCACCUUCUCCACCCAGC | -0.718 | 0.425 | -2.88 | 0.00141 | 0.974 | 0.95 | 0.119 | 0.639 | -0.224 | -0.605 | 0.365 | 0.874 | -0.656 | 1.21 |
| UUCCCUUUGUCAUCCUAUGCCU | 0.265 | 0.404 | -1.78 | -0.0998 | 0.747 | 0.146 | -0.0967 | -0.655 | -0.728 | 2.55 | -5.45 | 0.112 | -0.382 | 0.832 |
| UUCCCUUUGUCAUCCUUCGCCU | 0.539 | 0.0327 | -1.31 | -0.327 | 0.781 | 0.0207 | -0.168 | -0.268 | -0.19 | 0.344 | -4.93 | 0.903 | -0.355 | -0.675 |
| UUCUCCAAAAGAAAGCACUUUCUG | 0.931 | 0.815 | -0.49 | 0.348 | -0.561 | -0.288 | -0.642 | 2.07 | -0.152 | 1.85 | 1.93 | 1.42 | -0.447 | 1.36 |
| UUGAGAAUGAUGAAUCAUUAGG | 0.13 | -0.195 | -0.3 | 1.09 | 0.0167 | -0.554 | 0.0578 | -0.0444 | 0.0298 | -1.78 | -0.12 | -0.111 | 0.335 | -0.412 |
| UUGCAUAGUCACAAAAGUGA | -0.381 | 0.179 | 1.37 | -0.0974 | -1.85 | 0.143 | 0.279 | -0.0799 | 0.184 | -0.0278 | 0.0715 | -0.308 | 0.904 | -2.2 |
| UUGCAUAUGUAGGAUGUCCCAU | 0.216 | 0.731 | 1.23 | 0.995 | -1.75 | -0.178 | 0.476 | -1.22 | 0.153 | -1.76 | -1.16 | -0.812 | 0.961 | -4.28 |
| UUGGCCACAAUGGGUUAGAAC | 0.035 | -1.06 | -5.44 | -0.0679 | 0.316 | 0.113 | 0.316 | 1.36 | -0.0688 | 1.18 | 0.306 | 0.342 | -0.693 | 0.409 |
| UUGGUCCCCUUCAACCAGCUA | -0.159 | 1.2 | 1.01 | 1.24 | -0.0299 | 0.0097 | 0.62 | 0.425 | -0.864 | -1.46 | -0.834 | -0.167 | -0.692 | -0.0455 |
| UUGGUCCCCUUCAACCAGCUGU | 0.152 | 1.28 | 1 | 1.24 | 0.254 | 0.117 | 0.174 | 0.5 | -0.968 | -1.13 | -0.898 | -0.063 | -1.45 | -0.135 |
| UUGUACAUGGUAGGCUUUCAUU | -0.0352 | 0.0583 | -0.171 | 0.289 | 1.15 | 1.27 | 1.21 | -0.141 | 0.647 | -1.11 | 0.723 | 0.635 | -0.89 | -1.84 |
| UUGUGCUUGAUCUAACCAUGU | 0.391 | 0.222 | 0.164 | -0.276 | 0.205 | -0.328 | 0.0929 | -0.134 | 0.182 | 0.117 | -1.73 | 0.758 | -0.638 | -0.746 |
| UUUAACAUGGGGGUACCUGCUG | 1.26 | 0.537 | 0.198 | 0.621 | -1.1 | 0.0587 | -0.0461 | -0.244 | -0.514 | 0.182 | -1.08 | 0.395 | -0.238 | -0.448 |
| UUUAGGAUAAGCUUGACUUUUG | 0.711 | 0.299 | 1.12 | -0.108 | 0.0477 | -0.873 | -0.602 | 0.523 | -0.42 | -0.597 | -0.958 | -0.349 | 0.0255 | -2.69 |
| UUUCCAUAGGUGAUGAGUCAC | -0.419 | -3.48 | -0.836 | 0.654 | 1.55 | 1.24 | 0.823 | -0.218 | -0.326 | -0.367 | -0.505 | 0.93 | -0.699 | -0.252 |
| UUUCCUAUGCAUAUACUUCUUU | 0.202 | -0.62 | 0.0806 | -0.802 | 0.476 | 0.517 | 0.151 | 1.98 | -2.15 | -0.444 | -0.604 | 0.265 | -0.504 | 0.911 |
| UUUGGCAAUGGUAGAACUCACA | -0.0444 | 0.322 | -2.86 | -0.139 | -1.17 | -0.0764 | -0.026 | 0.203 | -0.441 | -0.697 | 0.438 | 0.469 | 0.0472 | 0.837 |
| UUUGUUCGUUCGGCUCGCGUGA | 1.05 | 0.52 | -0.0777 | -0.635 | -0.574 | -0.313 | 0.135 | -0.751 | 0.323 | 1.7 | 0.0504 | -0.809 | 0.275 | 0.164 |
| UUUUGCACCUUUUGGAGUGAA | 0.467 | -0.000424 | -3.44 | -0.429 | 1 | 0.905 | 0.393 | -0.182 | 1.27 | 0.706 | -0.86 | -1.86 | 0.767 | -4.16 |
| UUUUUGCGAUGUGUUCCUAAUA | 0.151 | 1.27 | -2.28 | 0.633 | 0.165 | -0.818 | 0.66 | 0.157 | 0.568 | 0.21 | 0.492 | -2.29 | 0.414 | -2.41 |
